# Data: ChEMBL document CHEMBL3112450, “Synthesis and in vitro antitumor evaluation of primary amine substituted quinazoline linked benzimidazole” (Bioorg Med Chem Lett, 2014)
# Key:
# Assay type in all cases: functional
# MOLT-4 = assay: Cytotoxicity against human MOLT4 cells assessed as cell growth at 10^-4 M after 48 hrs by SRB assay; details: MOLT-4, 48 h, read-out: Activity
# SK-MEL-5 = assay: Cytotoxicity against human SK-MEL-5 cells assessed as cell growth at 10^-4 M after 48 hrs by SRB assay; details: SK-MEL-5, 48 h, read-out: Activity
# M14 [1] = assay: Cytotoxicity against human M14 cells assessed as cell growth at 10^-6 M after 48 hrs by SRB assay; details: M14, 48 h, read-out: Activity
# [2] = Cytotoxicity against human UO31 cells after 48 hrs by SRB assay; details: UO-31, 48 h
# RXF 393 [3] = assay: Cytotoxicity against human RXF393 cells assessed as cell growth at 10^-7 M after 48 hrs by SRB assay; details: RXF 393, 48 h, read-out: Activity
# OVCAR-8 = assay: Cytotoxicity against human OVCAR8 cells assessed as cell growth at 10^-7 M after 48 hrs by SRB assay; details: OVCAR-8, 48 h, read-out: Activity
# PC-3 = assay: Cytotoxicity against human PC3 cells after 48 hrs by SRB assay; details: PC-3, 48 h
# SR [4] = assay: Cytotoxicity against human SR cells assessed as cell growth at 10^-7 M after 48 hrs by SRB assay; details: read-out: Activity
# MDA-MB-231 = assay: Cytotoxicity against human MDA-MB-231 cells assessed as cell growth at 10^-6 M after 48 hrs by SRB assay; details: MDA-MB-231, 48 h, read-out: Activity
# SF-539 = assay: Cytotoxicity against human SF539 cells assessed as cell growth at 10^-4 M after 48 hrs by SRB assay; details: SF-539, 48 h, read-out: Activity
# DU-145 [5] = assay: Cytotoxicity against human DU145 cells assessed as cell growth at 10^-7 M after 48 hrs by SRB assay; details: DU-145, 48 h, read-out: Activity
# M14 [6] = assay: Cytotoxicity against human M14 cells assessed as cell growth at 10^-7 M after 48 hrs by SRB assay; details: M14, 48 h, read-out: Activity
# HOP-62 = assay: Cytotoxicity against human HOP62 cells assessed as cell growth at 10^-8 M after 48 hrs by SRB assay; details: HOP-62, 48 h, read-out: Activity
# COLO 205 = assay: Cytotoxicity against human COLO205 cells assessed as cell growth at 10^-8 M after 48 hrs by SRB assay; details: COLO 205, 48 h, read-out: Activity
# LOX IMVI = assay: Cytotoxicity against human LOXIMVI cells assessed as cell growth at 10^-6 M after 48 hrs by SRB assay; details: read-out: Activity
# NCI-H460 = assay: Cytotoxicity against human NCI-H460 cells after 48 hrs by SRB assay; details: NCI-H460, 48 h
# HL-60(TB) = assay: Cytotoxicity against human HL-60(TB) cells assessed as cell growth at 10^-8 M after 48 hrs by SRB assay; details: HL-60, 48 h, read-out: Activity
# RPMI-8226 = assay: Cytotoxicity against human RPMI8226 cells assessed as cell growth at 10^-7 M after 48 hrs by SRB assay; details: RPMI-8226, 48 h, read-out: Activity
# HOP-92 = assay: Cytotoxicity against human HOP92 cells assessed as cell growth at 10^-8 M after 48 hrs by SRB assay; details: HOP-92, 48 h, read-out: Activity
# SK-MEL-28 [7] = assay: Cytotoxicity against human SK-MEL-28 cells assessed as cell growth at 10^-4 M after 48 hrs by SRB assay; details: SK-MEL-28, 48 h, read-out: Activity
# BT-549 = assay: Cytotoxicity against human BT549 cells assessed as cell growth at 10^-6 M after 48 hrs by SRB assay; details: BT-549, 48 h, read-out: Activity
# NCI-H23 [8] = assay: Cytotoxicity against human NCI-H23 cells assessed as cell growth at 10^-7 M after 48 hrs by SRB assay; details: NCI-H23, 48 h, read-out: Activity
# SR [9] = assay: Cytotoxicity against human SR cells assessed as cell growth at 10^-6 M after 48 hrs by SRB assay; details: read-out: Activity
# SK-MEL-28 [10] = assay: Cytotoxicity against human SK-MEL-28 cells assessed as cell growth at 10^-6 M after 48 hrs by SRB assay; details: SK-MEL-28, 48 h, read-out: Activity
# SN12C = assay: Cytotoxicity against human SN12C cells assessed as cell growth at 10^-6 M after 48 hrs by SRB assay; details: read-out: Activity
# SW-620 [11] = assay: Cytotoxicity against human SW620 cells assessed as cell growth at 10^-6 M after 48 hrs by SRB assay; details: SW-620, 48 h, read-out: Activity
# [12] = Cytotoxicity against human Hs578T cells assessed as cell growth at 10^-8 M after 48 hrs by SRB assay; details: Hs-578T, read-out: Activity
# NCI-H23 [13] = assay: Cytotoxicity against human NCI-H23 cells assessed as cell growth at 10^-8 M after 48 hrs by SRB assay; details: NCI-H23, 48 h, read-out: Activity
# HT-29 = assay: Cytotoxicity against human HT-29 cells assessed as cell growth at 10^-7 M after 48 hrs by SRB assay; details: HT-29, 48 h, read-out: Activity
# MDA-MB-435 = assay: Cytotoxicity against human MDA-MB-435 cells assessed as cell growth at 10^-6 M after 48 hrs by SRB assay; details: MDA-MB-435, 48 h, read-out: Activity
# SK-MEL-2 = assay: Cytotoxicity against human SK-MEL-2 cells after 48 hrs by SRB assay; details: SK-MEL-2, 48 h
# DU-145 [14] = assay: Cytotoxicity against human DU145 cells after 48 hrs by SRB assay; details: DU-145, 48 h
# SF-295 = assay: Cytotoxicity against human SF295 cells after 48 hrs by SRB assay; details: SF-295, 48 h
# IGROV-1 = assay: Cytotoxicity against human IGROV1 cells after 48 hrs by SRB assay; details: IGROV-1, 48 h
# RXF 393 [15] = assay: Cytotoxicity against human RXF393 cells assessed as cell growth at 10^-8 M after 48 hrs by SRB assay; details: RXF 393, 48 h, read-out: Activity
# NCI-H322M = assay: Cytotoxicity against human NCI-H322M cells assessed as cell growth at 10^-8 M after 48 hrs by SRB assay; details: read-out: Activity
# SW-620 [16] = assay: Cytotoxicity against human SW620 cells assessed as cell growth at 10^-8 M after 48 hrs by SRB assay; details: SW-620, 48 h, read-out: Activity
# T47D = assay: Cytotoxicity against human T47D cells after 48 hrs by SRB assay
# RXF 393 [17] = assay: Cytotoxicity against human RXF393 cells after 48 hrs by SRB assay; details: RXF 393, 48 h
# [18] = read-out: LC50 (the source's name)
compound,measurement,setting,value
C=CCn1c(C)nc2cc(Nc3nc(Nc4ccc5nc(C)n(CC=C)c5c4)c4ccccc4n3)ccc21,growth at 100 µM,MOLT-4,-18%
same,growth at 100 µM,SK-MEL-5,-37%
same,growth at 1 µM,M14 [1],72%
same,GI50,[2],1340 nM
same,LC50 (concentration causing 50% net cell kill),[2],5.17 µM
same,TGI,[2],2.63 µM
same,growth at 0.1 µM,RXF 393 [3],88%
same,growth at 0.1 µM,OVCAR-8,101%
same,GI50,PC-3,305 nM
same,TGI,PC-3,1.02 µM
same,growth at 0.1 µM,SR [4],89%
same,growth at 1 µM,MDA-MB-231,-62%
same,growth at 100 µM,SF-539,-94%
same,growth at 0.1 µM,DU-145 [5],99%
same,growth at 0.1 µM,M14 [6],98%
same,growth at 0.01 µM,HOP-62,98%
same,growth at 0.01 µM,COLO 205,101%
same,growth at 1 µM,LOX IMVI,-85%
same,GI50,NCI-H460,220 nM
same,growth at 0.01 µM,HL-60(TB),98%
same,growth at 0.1 µM,RPMI-8226,100%
same,growth at 0.01 µM,HOP-92,85%
same,growth at 100 µM,SK-MEL-28 [7],-48%
same,growth at 1 µM,BT-549,93%
same,growth at 0.1 µM,NCI-H23 [8],93%
same,growth at 1 µM,SR [9],-23%
same,growth at 1 µM,SK-MEL-28 [10],104%
same,growth at 1 µM,SN12C,65%
same,growth at 1 µM,SW-620 [11],-69%
same,growth at 0.01 µM,[12],90%
same,growth at 0.01 µM,NCI-H23 [13],95%
same,growth at 0.1 µM,HT-29,103%
same,growth at 1 µM,MDA-MB-435,32%
same,GI50,SK-MEL-2,1440 nM
same,TGI,SK-MEL-2,3.08 µM
same,GI50,DU-145 [14],0.402 µM
same,LC50 (50% lethal concentration),DU-145 [14],3.76 µM
same,TGI,DU-145 [14],1.41 µM
same,GI50,SF-295,1.44 µM
same,LC50,SF-295,5.24 µM
same,TGI,SF-295,2.75 µM
same,GI50,IGROV-1,1.54 µM
same,TGI,IGROV-1,3.01 µM
same,growth at 0.01 µM,RXF 393 [15],101%
same,growth at 0.01 µM,NCI-H322M,92%
same,growth at 0.01 µM,SW-620 [16],97%
same,GI50,T47D,280 nM
same,LC50,T47D,> 100 µM
same,TGI,T47D,909 nM
same,GI50,RXF 393 [17],373 nM
same,TGI,RXF 393 [17],1790 nM
C=CCn1c(C)nc2ccc(Nc3nc(Nc4ccc(F)cc4)nc4ccccc34)cc21,growth at 100 µM,MOLT-4,-48%
same,growth at 100 µM,SK-MEL-5,-69%
same,growth at 1 µM,M14 [1],94%
same,GI50,[2],4530 nM
same,LC50 (concentration causing 50% net cell kill),[2],52.8 µM
same,TGI,[2],19.3 µM
same,growth at 0.1 µM,RXF 393 [3],83%
same,growth at 0.1 µM,OVCAR-8,94%
same,GI50,PC-3,3140 nM
same,TGI,PC-3,14.7 µM
same,CC50,PC-3; [18],49.7 µM
same,growth at 0.1 µM,SR [4],98%
same,growth at 1 µM,MDA-MB-231,85%
same,growth at 100 µM,SF-539,-92%
same,growth at 0.1 µM,DU-145 [5],98%
same,growth at 0.1 µM,M14 [6],97%
same,growth at 0.01 µM,HOP-62,93%
same,growth at 0.01 µM,COLO 205,97%
same,growth at 1 µM,LOX IMVI,96%
same,GI50,NCI-H460,3110 nM
same,LC50 (concentration killing 50% of cells),NCI-H460,83.9 µM
same,TGI,NCI-H460,14.5 µM
same,growth at 0.01 µM,HL-60(TB),94%
same,growth at 0.1 µM,RPMI-8226,103%
same,growth at 0.01 µM,HOP-92,95%
same,growth at 100 µM,SK-MEL-28 [7],-50%
same,growth at 1 µM,BT-549,82%
same,growth at 0.1 µM,NCI-H23 [8],87%
same,growth at 1 µM,SR [9],92%
same,growth at 1 µM,SK-MEL-28 [10],89%
same,growth at 1 µM,SN12C,81%
same,growth at 1 µM,SW-620 [11],89%
same,growth at 0.01 µM,[12],92%
same,growth at 0.01 µM,NCI-H23 [13],94%
same,growth at 0.1 µM,HT-29,101%
same,growth at 1 µM,MDA-MB-435,90%
same,GI50,SK-MEL-2,3160 nM
same,LC50,SK-MEL-2,53.3 µM
same,TGI,SK-MEL-2,11.4 µM
same,GI50,DU-145 [14],8.63 µM
same,LC50 (50% lethal concentration),DU-145 [14],54.7 µM
same,TGI,DU-145 [14],22.8 µM
same,GI50,SF-295,6.08 µM
same,LC50,SF-295,51 µM
same,TGI,SF-295,20.3 µM
same,GI50,IGROV-1,6.09 µM
same,LC50,IGROV-1,98.7 µM
same,TGI,IGROV-1,27.2 µM
same,growth at 0.01 µM,RXF 393 [15],98%
same,growth at 0.01 µM,NCI-H322M,87%
same,growth at 0.01 µM,SW-620 [16],99%
same,GI50,T47D,1700 nM
same,LC50,T47D,> 100 µM
same,TGI,T47D,4230 nM
same,GI50,RXF 393 [17],1230 nM
same,TGI,RXF 393 [17],2570 nM
same,CC50,RXF 393 [17]; [18],5.38 µM
